Common to all, as to format: ADME, organism-based
Series [1] relates to Homo sapiens. As to the kind of experiment: (§1) Pharmcokinetic parameters for Ofloxacin following single oral dose administration of Ofloxacin to healthy male volunteers, body mass 70 to 80 kg. Also noted: dose 300 mg, dose 200 mg, dose 400 mg, route oral. The note with it: in vivo, po, dosed compound id 33, dosed compound name OFLOXACIN, gender male, regimen Single dose, tissue Serum.

Series [2] can be described thus: as §1. As to conditions: human, in vivo, dosed compound id 33, dosed compound name OFLOXACIN, regimen Single dose. The arrangement: dose 300 mg, dose 200 mg, dose 400 mg, route oral.
Series [3] relates to Homo sapiens. As to the kind of experiment: (§2) Steady-state pharmacokinetic parameters for Ofloxacin following multiple oral and intravenous (IV) doses of Ofloxacin to healthy 70 to 80 kg male volunteers. Also noted: dose 200 mg, dose 400 mg, dose 300 mg, route oral, route iv. The note with it: in vivo, dosed compound id 33, dosed compound name OFLOXACIN, gender male, regimen Multiple dose, tissue Serum.

Series [4] is described as follows: as §2. The arrangement: dose 200 mg, dose 400 mg, dose 300 mg, route oral, route iv. The note with it: human, in vivo, dosed compound id 33, dosed compound name OFLOXACIN, regimen Multiple dose; for AUC: gender male, tissue Serum.
Where [5] appears, read: male, route oral, tissue Plasma.

Where “and” joins values, the source holds several entries; their conditions need not be identical. Identical values can stand only once.

The Cmax is the peak of the concentration-time curve. In general, Tmax refers to the time from dosing to the highest level. By bioavailability is commonly meant the share of a dose that reaches the circulation, judged against a reference dose that is usually intravenous. Read a high bioavailability as much systemic uptake. Usually AUC stands for the area under the concentration-time curve, a measure of exposure. Turning to `CC1COc2c(N3CCN(C)CC3)c(F)cc3c(=O)c(C(=O)O)cn1c23` (stereo not given) [OFLOXACIN], the “AUC(0 to inf)” value in the series on Homo sapiens [1] is 14100 ng·h/mL and 21200 ng·h/mL and 31400 ng·h/mL. For the same compound, the Cmax is 2400 ng/mL and 2900 ng/mL in the series on Homo sapiens [1]; 1500 ng/mL in series [2] (po, gender male, tissue Serum). For the same compound, the Tmax in series [2] (setting [5]) was in the range of 1 to 2 h. The bioavailability in series [2] (setting [5]) amounted to 98%. Further, the “AUC(0 to 12) ss” value in the series with Homo sapiens [3] (study dosing duration 60 minutes) was 43500 ng·h/mL. Moreover, the Cmax ss with Homo sapiens [3] (po) is 2200 ng/mL and 3600 ng/mL and 4600 ng/mL. The AUC in series [4] (read-out: AUC(0 to 12) ss) turned out to be 41200 ng·h/mL; in series [4] (read-out: AUC(0 to inf) ss), 61000 ng·h/mL. The half-life in series [4] (male, route oral, tissue Plasma, read-out: t1/2 ss) was in the range of 4 to 5 h.

These data come from ChEMBL document CHEMBL3832025, “DailyMed|setid=d3417226-1f42-40cd-82ac-bc31ddf79b97 | OFLOXACIN - ofloxacin tablet, film coated|PD-Rx Pharmaceuticals, Inc”.
